Reference: the OPERA property sets (Mansouri et al. 2018)

logP	Structure (SMILES)
4.5	Cc1cccc(C(C)C)c1
4.5	CCCc1ccccc1C
4.38	Cc1ccccc1C(C)C
4.43	CCc1cc(C)ccc1C
3.98	CCc1cccc(C)c1
4.67	CCCc1cccc(C)c1
4.47	CCc1ccc(C)cc1C
4.28	CCc1c(C)cccc1C
4.55	CCc1cc(C)cc(C)c1
4.58	CCc1ccc(CC)cc1
4.57	CCc1cccc(CC)c1
4.5	CCc1ccc(C)c(C)c1
4.6	CCCc1ccc(C)cc1
7.11	CCCCCCCCCc1ccccc1
4.57	CCC(C)c1ccccc1 (stereo unspecified)
4.34	CCc1cccc(C)c1C
